Assays:
[1] = Equilibrium solubility of the D-tartrate salt in several solvents at 25° C.; type: physicochemical; settings: for solubility: thermodynamic from solid, 25° C., measured as the free base
[2] = Hygroscopicity study at controlled relative humidity; type: physicochemical; parameters: mass gain or mass loss: unit not given here
[3] = system: healthy postmenopausal females; test: Phase I clinical trial: tolerability and preliminary efficacy, voiding diary; type: in vivo, human
Experimental: A clinical trial was performed to evaluate the tolerability and preliminary efficacy of tarafenacin tartrate in healthy postmenopausal females.
Twelve subjects from 50 to 70 years old were randomized to receive tarafenacin tartrate 0.125 mg, 0.4 mg or placebo o.d. for 17 days. Subjects filled a diary to record time and volume of each void. A descriptive analysis was performed.

[4] = system: patients suffering from Overactive Bladder syndrome; test: Phase II clinical trial: pharmacodynamics in overactive bladder patients (urodynamic assessments, tolerability); settings: 4 weeks
Experimental: A pharmacodynamic study of tarafenacin tartrate in patients suffering from Overactive Bladder syndrome was performed to obtain first efficacy and tolerability data in this population.
The study was randomised, double-blind, placebo and active-controlled. Patients received tarafenacin tartrate at the dose of 0.1 or 0.2 mg, tolterodine 4 mg or placebo o.d. during 4 weeks, just after a 2 week single-blind wash-out period in which all patients received placebo. Urodynamic assessments were performed at baseline and after 4 weeks administration.
It was planned to screen approximately 100 patients and randomize 77 patients, to obtain outcome data on 63 patients. Patients who entered the study were randomized into the four treatment groups during the double blind treatment period.
After a Screening visit and a 14 day washout single blind period (placebo run in), patients were randomized to one of the four treatment arms by a 2:2:2:1 randomization schedule. In a single blind period, only the patients were blinded. During the treatment period, each patient received tarafenacin tartrate 0.1 mg/tarafenacin tartrate 0.2 mg/tolterodine (ER) 4 mg/placebo. Identical capsules were used to maintain the study blind.
The end of study procedures were performed at the Day 28 visit (End of Treatment [EOT]). A study follow up was conducted at Day 35 either telephonically or the patient was called to the clinic (End of Study [EOS]).
The primary endpoint was the pharmacodynamic endpoints and they were assessed as the mean change from baseline to Day 28 in urodynamic, salivary flow, and accommodation near point pharmacodynamic assessments.

[5] = 0.1 mg o.d., change from baseline to Day 28

O=C(O)C(O)C(O)C(=O)O.O=C(O[C@H]1CN2CCC1CC2)N(Cc1cc(F)c(F)c(F)c1)c1cccc(F)c1 [D-tartrate salt, D-tartrate salt of (R)-3-fluorophenyl-3,4,5-trifluorobenzylcarbamic acid 1-azabicyclo[2.2.2]oct-3-yl ester]
solubility ([1]; aqueous buffer, 0.1N sodium hydroxide): 90 µg/mL | solubility in water (in words) ([1]; crystalline form, water): highly soluble in water | solubility ([1]; organic solvent or mixture, Dichloromethane): 2200 µg/mL | solubility ([1]; organic solvent or mixture, Ethanol): 10000 µg/mL | solubility ([1]; organic solvent or mixture, Hexane): 300 µg/mL | solubility ([1]; organic solvent or mixture, Isopropyl alcohol): 1500 µg/mL | solubility ([1]; organic solvent or mixture, Methanol): 258000 µg/mL | solubility ([1]; organic solvent or mixture, n-Octanol): 500 µg/mL | solubility ([1]; simulated gastric fluid, 0.1 Hydrochloric acid): 367000 µg/mL | solubility ([1]; Water): 251000 µg/mL | mass gain or mass loss ([2]; 12% RH, 4 h): −0.26 | mass gain or mass loss ([2]; 12% RH, 8 h): −0.20 | mass gain or mass loss ([2]; 12% RH, 14 h): −0.30 | mass gain or mass loss ([2]; 12% RH, 48 h): −0.04 | mass gain or mass loss ([2]; 12% RH, 96 h): −0.30 | mass gain or mass loss ([2]; 12% RH, 144 h): −0.33 | mass gain or mass loss ([2]; 12% RH, 168 h): −0.32 | mass gain or mass loss ([2]; 12% RH, 192 h): −0.27 | mass gain or mass loss ([2]; 12% RH, 216 h): −0.29 | mass gain or mass loss ([2]; 12% RH, 240 h): −0.08 | mass gain or mass loss ([2]; 22% RH, 4 h): −0.16 | mass gain or mass loss ([2]; 22% RH, 8 h): −0.26 | mass gain or mass loss ([2]; 22% RH, 14 h): −0.25 | mass gain or mass loss ([2]; 22% RH, 48 h): −0.21 | mass gain or mass loss ([2]; 22% RH, 96 h): −0.26 | mass gain or mass loss ([2]; 22% RH, 144 h): −0.18 | mass gain or mass loss ([2]; 22% RH, 168 h): −0.28 | mass gain or mass loss ([2]; 22% RH, 192 h): −0.21 | mass gain or mass loss ([2]; 22% RH, 216 h): −0.19 | mass gain or mass loss ([2]; 22% RH, 240 h): −0.11 | mass gain or mass loss ([2]; 33% RH, 4 h): −0.25 | mass gain or mass loss ([2]; 33% RH, 8 h): −0.24 | mass gain or mass loss ([2]; 33% RH, 14 h): −0.21 | mass gain or mass loss ([2]; 33% RH, 48 h): −0.19 | mass gain or mass loss ([2]; 33% RH, 96 h): −0.17 | mass gain or mass loss ([2]; 33% RH, 144 h): −0.30 | mass gain or mass loss ([2]; 33% RH, 168 h): −0.39 | mass gain or mass loss ([2]; 33% RH, 192 h): −0.11 | mass gain or mass loss ([2]; 33% RH, 216 h): −0.15 | mass gain or mass loss ([2]; 33% RH, 240 h): −0.18 | mass gain or mass loss ([2]; 43% RH, 4 h): −0.38 | mass gain or mass loss ([2]; 43% RH, 8 h): −0.32 | mass gain or mass loss ([2]; 43% RH, 14 h): −0.21 | mass gain or mass loss ([2]; 43% RH, 48 h): −0.25 | mass gain or mass loss ([2]; 43% RH, 96 h): −0.30 | mass gain or mass loss ([2]; 43% RH, 144 h): −0.40 | mass gain or mass loss ([2]; 43% RH, 168 h): −0.34 | mass gain or mass loss ([2]; 43% RH, 192 h): −0.19 | mass gain or mass loss ([2]; 43% RH, 216 h): −0.25 | mass gain or mass loss ([2]; 43% RH, 240 h): −0.18 | mass gain or mass loss ([2]; 53% RH, 4 h): −0.19 | mass gain or mass loss ([2]; 53% RH, 8 h): −0.21 | mass gain or mass loss ([2]; 53% RH, 14 h): −0.16 | mass gain or mass loss ([2]; 53% RH, 48 h): −0.17 | mass gain or mass loss ([2]; 53% RH, 96 h): −0.19 | mass gain or mass loss ([2]; 53% RH, 144 h): −0.17 | mass gain or mass loss ([2]; 53% RH, 168 h): −0.16 | mass gain or mass loss ([2]; 53% RH, 192 h): −0.20 | mass gain or mass loss ([2]; 53% RH, 216 h): −0.14 | mass gain or mass loss ([2]; 53% RH, 240 h): 0.00 | mass gain or mass loss ([2]; 64% RH, 4 h): −0.08 | mass gain or mass loss ([2]; 64% RH, 8 h): −0.07 | mass gain or mass loss ([2]; 64% RH, 14 h): −0.07 | mass gain or mass loss ([2]; 64% RH, 48 h): 0.02 | mass gain or mass loss ([2]; 64% RH, 96 h): −0.07 | mass gain or mass loss ([2]; 64% RH, 144 h): 0.15 | mass gain or mass loss ([2]; 64% RH, 168 h): 0.15 | mass gain or mass loss ([2]; 64% RH, 192 h): 0.20 | mass gain or mass loss ([2]; 64% RH, 216 h): 0.25 | mass gain or mass loss ([2]; 64% RH, 240 h): 0.59 | mass gain or mass loss ([2]; 75% RH, 4 h): −0.08 | mass gain or mass loss ([2]; 75% RH, 8 h): 0.02 | mass gain or mass loss ([2]; 75% RH, 14 h): 0.01 | mass gain or mass loss ([2]; 75% RH, 48 h): 0.06 | mass gain or mass loss ([2]; 75% RH, 96 h): −0.06 | mass gain or mass loss ([2]; 75% RH, 144 h): −0.08 | mass gain or mass loss ([2]; 75% RH, 168 h): −0.05 | mass gain or mass loss ([2]; 75% RH, 192 h): 0.00 | mass gain or mass loss ([2]; 75% RH, 216 h): 0.01 | mass gain or mass loss ([2]; 75% RH, 240 h): 0.29 | mass gain or mass loss ([2]; 85% RH, 4 h): 0.16 | mass gain or mass loss ([2]; 85% RH, 8 h): 0.13 | mass gain or mass loss ([2]; 85% RH, 14 h): 0.22 | mass gain or mass loss ([2]; 85% RH, 48 h): 0.26 | mass gain or mass loss ([2]; 85% RH, 96 h): 0.07 | mass gain or mass loss ([2]; 85% RH, 144 h): 0.24 | mass gain or mass loss ([2]; 85% RH, 168 h): 0.18 | mass gain or mass loss ([2]; 85% RH, 192 h): 0.15 | mass gain or mass loss ([2]; 85% RH, 216 h): 0.23 | mass gain or mass loss ([2]; 85% RH, 240 h): 0.59 | mass gain or mass loss (in words) ([2]; 93% RH or below): No significant mass gain or mass loss | mass gain or mass loss ([2]; 93% RH, 4 h): 0.16 | mass gain or mass loss ([2]; 93% RH, 8 h): 0.03 | mass gain or mass loss ([2]; 93% RH, 14 h): 0.24 | mass gain or mass loss ([2]; 93% RH, 48 h): 0.44 | mass gain or mass loss ([2]; 93% RH, 96 h): 0.40 | mass gain or mass loss ([2]; 93% RH, 144 h): 0.43 | mass gain or mass loss ([2]; 93% RH, 168 h): 0.39 | mass gain or mass loss ([2]; 93% RH, 192 h): 0.38 | mass gain or mass loss ([2]; 93% RH, 216 h): 0.43 | mass gain or mass loss ([2]; 93% RH, 240 h): 0.81 | water addition (in words) ([2]; 97% RH): significant water addition issue | mass gain or mass loss ([2]; 97% RH, 4 h): 1.51 | mass gain or mass loss ([2]; 97% RH, 8 h): 1.06 | mass gain or mass loss ([2]; 97% RH, 14 h): 4.36 | mass gain or mass loss ([2]; 97% RH, 48 h): 7.86 | mass gain or mass loss ([2]; 97% RH, 96 h): 13.77 | mass gain or mass loss ([2]; 97% RH, 144 h): 23.58 | mass gain or mass loss ([2]; 97% RH, 168 h): 23.62 | mass gain or mass loss ([2]; 97% RH, 192 h): 23.06 | mass gain or mass loss ([2]; 97% RH, 216 h): 22.13 | mass gain or mass loss ([2]; 97% RH, 240 h): 19.88 | KF initial ([2]; before the hygroscopicity study): HYGR[…] (KF initial = 0.9692%) | effect on the volume of urine per void (in words) ([3]; 0.125 mg and 0.4 mg o.d. for 17 days): A dose-relationship was observed | number of voids per day ([3]; 0.125 mg group, day 0): 7.6 times per day | number of voids per day ([3]; 0.125 mg group, day 17): 6.8 times per day | volume per void ([3]; 0.125 mg o.d., from day 10 until day 17 (steady state)): 450 to 550 mL | number of voids per day ([3]; 0.4 mg group, day 0): 8 times per day | number of voids per day ([3]; 0.4 mg group, day 17): 6.4 times per day | mean volumes per void ([3]; 0.4 mg o.d., from day 2 until the end of the study): 550 to 650 mL | incidence of treatment emergent adverse events ([4]; 0.1 mg o.d.): 25% | increase in infused volume [4, 5]: 73 mL | increase in volume at first desire to void [4, 5]: 60 mL | increase in volume at strong desire to void [4, 5]: 71 mL | dose-response relationship (in words) ([4]; 0.1 mg versus 0.2 mg o.d.): no dose-response relationship | incidence of treatment emergent adverse events ([4]; 0.2 mg o.d.): 33% | tolerability (in words) ([4]; OAB patients): well tolerated | pharmacological activity (in words) ([4]; OAB patients, listed as Tarafenacin tartrate): good pharmacological activity | pharmacological activity (in words) ([4]; OAB patients, listed as tarafenacin tartrate): higher pharmacological activity

Reference: patent US8871787B2, “Stable crystalline salt of (R)-3-fluorophenyl-3,4,5-trifluorobenzylcarbamic acid 1-azabicyclo [2.2.2]oct-3-yl ester” (Laboratorios Salvat, S.A., priority 2007, dated 2014)
